Reference: patent US12281329B2, “Compositions and methods for immune cell modulation in adoptive immunotherapies” (Fate Therapeutics, Inc., priority 2016, dated 2025)

How the values were obtained:
primary AML blasts = test: NK cell cytotoxicity against primary AML blasts; format: cell-based, human; conditions: multi-day IL-15 + GSK3i NK cells vs overnight primed
Protocol: (§1) NK Cell Cytotoxicity Assay: Cytotoxicity was determined using a flow cytometry based method based on a previously published method (Kim, et al. J Immunol Methods. 2007 Aug. 31; 325(1-2): 51-66). NK cells were co-cultured with e450-proliferation dye-labelled targets for 4 hours. CellEvent™ Caspase-3/7 Green Flow Cytometry Assay Kit (Lifer Technologies) was used to assay for cell death among target cells, and samples were read on a BD LSRFortessa cytometer. Killing of SKOV-3 targets was quantified using the Incucyte Zoom instrument. SKOV-3 cells were transiently transduced with NucLight-Red BacMam reagent (Essen Biosciences) and co-cultured with the indicated NK cell populations for 74 hours, with images taken on two hour intervals. Caspase 3/7 activity was monitored to indicate target cells undergoing apoptosis using the CellEvent™ Caspase-3/7 Green Detection Reagent. The number of target cells was normalized to SKOV-3 cells cultured alone, and targets undergoing apoptosis were quantified based on caspase 3/7 activity.
Cytotoxicity of CD3/CD19 depleted PBMC cultured multiple days with IL-15 and GSK3i (GSK3i modulated NK cells) versus overnight primed NK cells against primary AML blasts were also compared. Percent specific killing of primary AML blasts from multiple patients was measured by flow cytometry-based cytotoxicity assay.

CD20+ Raji cells = test: NK cell cytotoxicity assay, Raji target cells; format: cell-based, human; conditions: 4 hours; NK cells overnight IL-15 only or 7 days IL15 + GSK3i
Protocol: as §1
The ability of GSK3 inhibition to enhance cytotoxicity of NK cells isolated directly from donors was assessed using in vitro killing assays. […] After the target cells were incubated with the differently treated NK cells for 4 hours, the respective percentage of specific killing (target cell lysis) was calculated. […]

K562 cells = test: NK cell cytotoxicity assay, K562 target cells; format: cell-based; conditions: 4 hours; NK cells overnight 10 ng/mL IL-15 only or 7 day IL-15 + 5 μM CHIR99021
Protocol: as §1
The ability of GSK3 inhibition to enhance cytotoxicity of NK cells isolated directly from donors was assessed using in vitro killing assays. […] depleted PBMC population was treated overnight with 10 ng/mL IL-15 only (primed), or a 7 day culture combination of 10 ng/mL IL-15 and 5 μM CHIR99021. The target cells for the killing assays included K562 cells, CD20+ Raji cells, HER2+ SKOV3 cells and HER2+A549 cells. The E:T (Effector:Target) ratio applied to each assay ranged from 0.1, 0.5, 1, 5 to 10. After the target cells were incubated with the differently treated NK cells for 4 hours, the respective percentage of specific killing (target cell lysis) was calculated. […] Raji cells are less prone to NK mediated cytotoxicity.
The ability of STING agonist to enhance cytotoxicity of GSK3i multiday modulated NK cells was assessed using in vitro killing assays. […]

HER2+A549 cells = test: NK cell Herceptin ADCC killing of A549 cells; format: cell-based, human; conditions: NK cells cultured with GSK3i for 7 days
[1] = system: K562 tumor cells and allogeneic PBMC; test: Dual-target cytotoxicity assay, K562 tumor cells mixed with allogeneic PBMC; format: cell-based, human; conditions: GSK3i modulated NK cells; 3-4 NK cell donors per PBMC donor
Protocol: Cytotoxicity of GSK3i modulated NK cells against allogeneic PBMC was evaluated in combination with K562 tumor cells in a dual-target cytotoxicity assay. Percent specific killing in PBMC+K562+overnight primed NK cells or PBMC+K562+GSK3i modulated NK cells was measured.

SKOV-3 cells = test: In vivo tumor clearing of luciferase-expressing SKOV-3 cells by modulated NK cells with Herceptin; parameters: species or system NSG mice
Description: In vivo tumor clearing using Modulated NK cells: NSG mice were irradiated with 300 rads one day prior to intraperitoneal transplant of 2×10^5 luciferase-expressing SKOV-3 cells. 5 days after transplant of the ovarian carcinoma cells, mice were either left untreated, treated with Herceptin only, or treated with Herceptin, IL-15, and NK cells cultured for 7 days with IL-15 and CHIR99021. Luciferase-expressing SKOV-3 cells were imaged on day 21 using the IVIS imaging system.
Moreover, the in vivo tumor clearance ability of GSK3i cultured NK cells using the process provided herein was also tested. NSG mice were irradiated with 300 rads one day prior to intraperitoneal transplant of luciferase-expressing SKOV-3 cells. 5 days after the ovarian carcinoma cell transplant, the mice were either left untreated, treated with Herceptin only, or treated with Herceptin, IL-15, and NK cells cultured for 7 days with IL-15 and CHIR99021. […]
The in vivo tumor clearance ability of GSK3i cultured NK cells using the process provided herein was then compared to overnight primed CD3/CD19 depleted PBMC, and CD3/CD19 depleted PBMC cultured for 7 days with IL-15 and DMSO. […] Luciferase-expressing SKOV-3 cells were quantified by measuring luciferase activity using the IVIS imaging system.

In the case of `Cc1c[nH]c(-c2cnc(NCCNc3ccc(C#N)cn3)nc2-c2ccc(Cl)cc2Cl)n1` [CHIR99021], the “percent specific killing of primary AML blasts” value (primary AML blasts) was “highly and consistently effective”, the “E:T50, Raji cells” value (CD20+ Raji cells) was 1-2 and the “E:T50 (E:T ratio when there is 50% of target cell lysis), K562 killing assay” value (K562 cells) was “about 1”. The “ADCC-mediated killing of A549 cells (rate and efficiency)” value (HER2+A549 cells) was “enhanced”, the “percent specific killing of K562 versus allogeneic PBMC” value [1] was “selectively target those cells among normal cells” and the “in vivo SKOV-3 ADCC killing (luciferase activity)” value (SKOV-3 cells; 100 ug Herceptin + 2.5×10^6 cells, vs overnight primed and 7 day IL-15 + DMSO) was “highly and consistently effective”. The “tumor-suppressive effects of Herceptin antibody treatment” value (SKOV-3 cells; NK cells cultured 7 days with IL-15 and CHIR99021, plus Herceptin and IL-15, imaged Day 21 post-transplant) was “enhances”.
